The values below come from ChEMBL document CHEMBL5335841, “In vitro biological evaluation and in silico studies of linear diarylheptanoids from Curcuma aromatica Salisb. as urease inhibitors” (RSC Med Chem, 2024).

Experiment [1] can be described thus: Inhibition of urease (unknown origin) using urea as substrate preincubated for 30 mins followed by substrate addition and measured after 20 mins by red phenol reagent based assay.
Experiment [2] in a line: Inhibition of urease (unknown origin) at 250 uM using urea as substrate preincubated for 30 mins followed by substrate addition and measured after 20 mins by red phenol reagent based assay relative to control. To be noted: time 50.0 min.

The compound `Oc1ccc(CC[C@H](O)C[C@H](O)CCc2ccc(O)c(O)c2)cc1` (relative stereo) came in with an IC50 in experiment [1] of 9.6 µM.
On the same count and under the same terms, with `COc1cc(CC[C@H](C[C@H](CCc2ccc(O)cc2)OC(C)=O)OC(C)=O)ccc1O` (relative stereo) the figure was 223 µM.
For `COc1cc(CC[C@H](C[C@H](CCc2ccc(O)cc2)OC(C)=O)OC(C)=O)cc(OC)c1O` (relative stereo), the IC50 in experiment [1] is above 250 µM. The inhibition in experiment [2] was 3.3%.
Compound `CC(=O)O[C@H](CCc1ccc(O)c(O)c1)C[C@H](CCc1ccc(O)cc1)OC(C)=O` (relative stereo) displayed an IC50 in experiment [1] of 129 µM.
On to `COc1cc(CC[C@H](O)C[C@H](O)CCc2cc(OC)c(O)c(OC)c2)ccc1O` (relative stereo), for which, in experiment [1], the concentration for half-maximal inhibition (IC50) is above 250 µM. In addition, in experiment [2], the inhibition amounted to 27.3%.
Take `NC(=O)NO` [HYDROXYUREA]: it took 77.5 µM to reach half-maximal inhibition in experiment [1] (IC50).
In turn, `COc1cc(CC[C@@H](O)C[C@H](O)CCc2ccc(O)c(O)c2)ccc1O` (relative stereo) came in with an IC50 in experiment [1] of 21.8 µM.
On the same count and under the same terms, with `COc1cc(CC[C@@H](O)C[C@@H](O)CCc2ccc(O)cc2)ccc1O` (relative stereo) the figure was 153 µM.
In experiment [1], `COc1cc(CC[C@@H](O)C[C@H](O)CCc2cc(OC)c(O)c(OC)c2)ccc1O` (relative stereo) registered a half-inhibitory concentration (IC50) above 250 µM. Moreover, the inhibition in experiment [2] worked out at 14.3%.
`COc1cc(CC[C@@H](O)C[C@@H](O)CCc2ccc(O)cc2)cc(OC)c1O` (relative stereo) showed a half-maximal inhibitory concentration (IC50) in experiment [1] of 228 µM.

In general, IC50 refers to the concentration that gives 50% inhibition. A higher IC50 goes with a need for much substance. By inhibition is commonly meant the drop in the measured response relative to a control, in per cent. A lower inhibition goes with a response near the control.
